The values below come from patent US9550739B2, “Molecules having certain pesticidal utilities, and intermediates, compositions, and processes related thereto” (priority 2014, dated 2017).

Holding throughout (assay type): in vivo
The test system of data set [1] is Beet Armyworm (Spodoptera exigua, LAPHEG) ("BAW"). The data set can be described thus: Bioassays on Beet Armyworm (BAW), 128-well diet tray assay. The note with it: Spodoptera exigua, 168 h, read-out: BAW % Control (or Mortality) rating. On the procedure:
(§1) Certain molecules disclosed in this document were tested against BAW and CEW using procedures described in the following examples. In the reporting of the results, the “BAW & CL Rating Table” was used (See Table Section).
Bioassays on BAW were conducted using a 128-well diet tray assay. one to five second instar BAW larvae were placed in each well (3 mL) of the diet tray that had been previously filled with 1 mL of artificial diet to which 50 μg/cm^2 of the test compound (dissolved in 50 μL of 90:10 acetone-water mixture) had been applied (to each of eight wells) and then allowed to dry. Trays were covered with a clear self-adhesive cover and held at 25° C., 14:10 light-dark for five to seven days. Percent mortality was recorded for the larvae in each well; activity in the eight wells was then averaged. The results are indicated in the table entitled “Table ABC: Biological Results” (See Table Section).

Data set [2] relates to Cabbage Looper (Trichoplusia ni, TRIPNI) ("CL"). Kind of data set: Bioassays on Cabbage Looper (CL), 128-well diet tray assay. The note with it: Trichoplusia ni, 168 h, read-out: CL % Control (or Mortality) rating. As to the method:
as §1
Bioassays on CL were conducted using a 128-well diet tray assay. one to five second instar CL larvae were placed in each well (3 mL) of the diet tray that had been previously filled with 1 mL of artificial diet to which 50 μg/cm^2 of the test compound (dissolved in 50 μL of 90:10 acetone-water mixture) had been applied (to each of eight wells) and then allowed to dry. Trays were covered with a clear self-adhesive cover and held at 25° C., 14:10 light-dark for five to seven days. Percent mortality was recorded for the larvae in each well; activity in the eight wells was then averaged. The results are indicated in the table entitled “Table ABC: Biological Results” (See Table Section).

In data set [3] the test system is Yellow Fever Mosquito (Aedes aegypti, AEDSAE) ("YFM"). The note with it: about 1 day-old larvae, 4000 ppm master solution diluted, 3 days, room temperature. As to the method:
Certain molecules disclosed in this document were tested against YFM using procedures described in the following paragraph. In the reporting of the results, the “YFM Rating Table” was used (See Table Section).
Master plates containing 400 μg of a molecule dissolved in 100 μL of dimethyl sulfoxide (DMSO) (equivalent to a 4000 ppm solution) are used. A master plate of assembled molecules contains 15 μL per well. To this plate, 135 μL of a 90:10 water:acetone mixture is added to each well. A robot (Biomek® NXP Laboratory Automation Workstation) is programmed to dispense 15 μL aspirations from the master plate into an empty 96-well shallow plate (“daughter” plate). There are 6 reps (“daughter” plates) created per master. The created daughter plates are then immediately infested with YFM larvae.
The day before plates are to be treated, mosquito eggs are placed in Millipore water containing liver powder to begin hatching (4 g. into 400 mL). After the daughter plates are created using the robot, they are infested with 220 μL of the liver powder/larval mosquito mixture (about 1 day-old larvae). After plates are infested with mosquito larvae, a non-evaporative lid is used to cover the plate to reduce drying. Plates are held at room temperature for 3 days prior to grading. After 3 days, each well is observed and scored based on mortality.

Where [4] appears, read: second instar BAW larvae, 50 μg/cm^2 on artificial diet, five to seven days, 25° C.

Like-named read-outs stand apart in the source and are kept apart here.

In general, mortality refers to the percentage killed.

Take `CC(=O)c1ccccc1-c1cccc(C(=O)Nc2ccc(-c3ncn(-c4ccc(OC(F)(F)C(F)(F)F)cc4)n3)cc2)c1` [F9, 2′-Acetyl-N-(4-(1-(4-(perfluoroethoxy)phenyl)-1H-1,2,4-triazol-3-yl)phenyl)-[1,1′-biphenyl]-3-carboxamide]: the mortality at 50 µg/cm2 in data set [1] (setting [4]) and in data set [2] was 50 to 100% each time. In addition, the “YFM % Control (or Mortality) rating” value in data set [3] was “A (80-100)”.
Regarding `CN(C)c1ccccc1-c1cccc(C(=O)Nc2ccc(-c3ncn(-c4ccc(OC(F)(F)F)cc4)n3)cc2)c1` [F10, 2′-(Dimethylamino)-N-(4-(1-(4-(trifluoromethoxy)phenyl)-1H-1,2,4-triazol-3-yl)phenyl)-[1,1′-biphenyl]-3-carboxamide], the mortality at 50 µg/cm2 in data set [1] (setting [4]) and in data set [2] was 50 to 100% throughout. Further, in data set [3], the “YFM % Control (or Mortality) rating” value is on record as “B (More than 0-Less than 80)”.
For the compound `O=C(Nc1ccc(-c2ncn(-c3ccc(OC(F)(F)F)cc3)n2)cc1)c1ccc(F)c(-c2ccccc2)c1` [F11, 6-Fluoro-N-(4-(1-(4-(trifluoromethoxy)phenyl)-1H-1,2,4-triazol-3-yl)phenyl)-[1,1′-biphenyl]-3-carboxamide], the mortality at 50 µg/cm2 in data set [1] (setting [4]) and in data set [2] was 50 to 100% each time. Further, in data set [3], the “YFM % Control (or Mortality) rating” value is listed as “D (No activity noticed in this bioassay)”.
On to `COc1ccc(C(=O)Nc2ccc(-c3ncn(-c4ccc(OC(F)(F)C(F)(F)F)cc4)n3)cc2)cc1-c1ccccc1` [F13, 6-Methoxy-N-(4-(1-(4-(perfluoroethoxy)phenyl)-1H-1,2,4-triazol-3-yl)phenyl)-[1,1′-biphenyl]-3-carboxamide], for which the figures for the mortality at 50 µg/cm2 in data set [1] (setting [4]) and in data set [2] were 0% and 50 to 100%, respectively. For the same compound, in data set [3], the “YFM % Control (or Mortality) rating” value is recorded as “D (No activity noticed in this bioassay)”.
Taken in the same sequence, the figures for `O=C(Nc1ccc(-c2ncn(-c3ccc(OC(F)(F)F)cc3)n2)cc1)c1cc(-c2ccccc2)ccc1Cl` [F15, 4-Chloro-N-(4-(1-(4-(trifluoromethoxy)phenyl)-1H-1,2,4-triazol-3-yl)phenyl)-[1,1′-biphenyl]-3-carboxamide] were 0%, 0% and “D (No activity noticed in this bioassay)”.
Take `CC(C)Oc1ccc(-n2cnc(-c3ccc(NC(=O)c4ccc(F)c(-c5ccccc5)c4)cc3)n2)cc1` [F16, 6-Fluoro-N-(4-(1-(4-isopropoxyphenyl)-1H-1,2,4-triazol-3-yl)phenyl)-[1,1′-biphenyl]-3-carboxamide]: the mortality at 50 µg/cm2 in data set [1] (setting [4]) was 0%; in data set [2], 50 to 100%. Further, in data set [3], the “YFM % Control (or Mortality) rating” value is on record as “B (More than 0-Less than 80)”.
Taken in the same sequence, the figures for `Cc1ccccc1-c1cccc(C(=O)Nc2ccc(-c3ncn(-c4ccc(OC(F)(F)F)cc4)n3)cc2)c1` [F17, 2′-Methyl-N-(4-(1-(4-(trifluoromethoxy)phenyl)-1H-1,2,4-triazol-3-yl)phenyl)-[1,1′-biphenyl]-3-carboxamide] were 50 to 100%, 50 to 100% and “D (No activity noticed in this bioassay)”.
Taken in the same sequence, the figures for `O=C(Nc1ccc(-c2ncn(-c3ccc(OC(F)(F)F)cc3)n2)cc1)c1cccc(-c2ccc(Cl)cc2Cl)n1` [F18, 6-(2,4-Dichlorophenyl)-N-(4-(1-(4-(trifluoromethoxy)phenyl)-1H-1,2,4-triazol-3-yl)phenyl)picolinamide] were 0%, 0% and “D (No activity noticed in this bioassay)”.
Taken in the same sequence, the figures for `COc1ccccc1-c1cccc(C(=O)N(C)c2ccc(-c3ncn(-c4ccc(OC(F)(F)F)cc4)n3)cc2)c1` [F19, 2′-methoxy-N-methyl-N-(4-(1-(4-(trifluoromethoxy)phenyl)-1H-1,2,4-triazol-3-yl)phenyl)-[1,1′-biphenyl]-3-carboxamide] were 50 to 100%, 50 to 100% and “A (80-100)”.
For `COc1ccccc1-c1cc(C(=O)Nc2ccc(-c3ncn(-c4ccc(C(F)(F)F)cc4)n3)cc2)ccc1F` [F20, 6-fluoro-2′-methoxy-N-(4-(1-(4-(trifluoromethyl)phenyl)-1H-1,2,4-triazol-3-yl)phenyl)-[1,1′-biphenyl]-3-carboxamide], the mortality at 50 µg/cm2 in data set [1] (setting [4]) and in data set [2] was 50 to 100% each time. For the same compound, the “YFM % Control (or Mortality) rating” value in data set [3] was “A (80-100)”.
Consider `COc1ccccc1-c1cccc(C(=S)Nc2ccc(-c3ncn(-c4ccc(OC(F)(F)F)cc4)n3)cc2)c1` [F21, 2′-Methoxy-N-(4-(1-(4-(trifluoromethoxy)phenyl)-1H-1,2,4-triazol-3-yl)phenyl)-[1,1′-biphenyl]-3-carbothioamide], for which the mortality at 50 µg/cm2 in data set [1] (setting [4]) and in data set [2] was 50 to 100% each time. Also, the “YFM % Control (or Mortality) rating” value in data set [3] is recorded as “A (80-100)”.
For `COc1ccccc1-c1cccc(C(=O)Nc2ccc(-c3ncn(-c4ccc(OC(F)(F)F)cc4)n3)cc2)c1` [F22, 2′-Methoxy-N-(4-(1-(4-(trifluoromethoxy)phenyl)-1H-1,2,4-triazol-3-yl)phenyl)-[1,1′-biphenyl]-3-carboxamide], the mortality at 50 µg/cm2 in data set [1] (setting [4]) and in data set [2] was 50 to 100% throughout. The “YFM % Control (or Mortality) rating” value in data set [3] is on record as “A (80-100)”.
Take `COc1ccccc1-c1cccc(C(=S)Nc2ccc(-c3ncn(-c4ccc(OC(F)(F)C(F)(F)F)cc4)n3)cc2)c1` [F23, 2′-methoxy-N-(4-(1-(4-(perfluoroethoxy)phenyl)-1H-1,2,4-triazol-3-yl)phenyl)-[1,1′-biphenyl]-3-carbothioamide]: the mortality at 50 µg/cm2 in data set [1] (setting [4]) and in data set [2] was 50 to 100% each time. For the same compound, the “YFM % Control (or Mortality) rating” value in data set [3] was “A (80-100)”.
As for `O=C(Nc1ccc(-c2ncn(-c3ccc(OC(F)(F)F)cc3)n2)cc1)c1cc(F)cc(-c2ccccc2)c1` [F25, 5-Fluoro-N-(4-(1-(4-(trifluoromethoxy)phenyl)-1H-1,2,4-triazol-3-yl)phenyl)-[1,1′-biphenyl]-3-carboxamide], the mortality at 50 µg/cm2 in data set [1] and in data set [2] was 50 to 100% each time. For the same compound, in data set [3], the “YFM % Control (or Mortality) rating” value is “D (No activity noticed in this bioassay)”.
Take `COc1ccccc1-c1cccc(C(=O)Nc2ccc(-c3ncn(-c4ccc(OC(F)(F)C(F)(F)F)cc4)n3)cc2)c1` [F26, 2′-Methoxy-N-(4-(1-(4-(perfluoroethoxy)phenyl)-1H-1,2,4-triazol-3-yl)phenyl)-[1,1′-biphenyl]-3-carboxamide]: the mortality at 50 µg/cm2 in data set [1] (setting [4]) and in data set [2] was 50 to 100% in each case. For the same compound, the “YFM % Control (or Mortality) rating” value in data set [3] is reported as “A (80-100)”.
Take `O=C(Nc1ccc(-c2ncn(-c3ccc(OC(F)(F)F)cc3)n2)cc1)c1cccc(-c2ccccc2)n1` [F27, 6-Phenyl-N-(4-(1-(4-(trifluoromethoxy)phenyl)-1H-1,2,4-triazol-3-yl)phenyl)picolinamide]: the results for the mortality at 50 µg/cm2 in data set [1] (setting [4]) and in data set [2] were 0 to 50% and 0%, respectively. The “YFM % Control (or Mortality) rating” value in data set [3] is listed as “D (No activity noticed in this bioassay)”.
On the same counts, the results for `O=C(Nc1ccc(-c2ncn(-c3ccc(OC(F)(F)F)cc3)n2)cc1)c1ccc(F)c(-c2ccccc2F)c1` [F28, 2′,6-Difluoro-N-(4-(1-(4-(trifluoromethoxy)phenyl)-1H-1,2,4-triazol-3-yl)phenyl)-[1,1′-biphenyl]-3-carboxamide] are 50 to 100%, 50 to 100% and “A (80-100)”.
Taken in the same sequence, the figures for `Cc1ccccc1-c1cc(F)cc(C(=O)N(C)c2ccc(-c3ncn(-c4ccc(OC(F)(F)C(F)(F)F)cc4)n3)cc2)c1` [F29, 5-fluoro-N,2′-dimethyl-N-(4-(1-(4-(perfluoroethoxy)phenyl)-1H-1,2,4-triazol-3-yl)phenyl)-[1,1′-biphenyl]-3-carboxamide] were 50 to 100%, 0% and “D (No activity noticed in this bioassay)”.
